Measured values as given in patent US20250034186A1, “ANTIVIRAL COMPOUNDS” (priority 2020, published 2025).
≈ marks a conversion by molar mass, not a printed value. Read-outs that look alike come from different tables or passages of the source.

Key:
RSV A2 = experiment: RSV NHBE EC50, RSV A2 antiviral assay; type: cell-based; details: for EC50: human respiratory syncytial virus, 96 h, RSV A2 in NHBE cells, 4 days
Procedure: Normal human bronchial epithelial (NHBE) cells were purchased from Lonza (Walkersville, MD, Cat #CC-2540) and cultured in Bronchial Epithelial Growth Media (BEGM) (Lonza, Walkersville, MD, Cat #CC-3170). The cells were passaged 1-2 times per week to maintain <80% confluency. The NHBE cells were discarded after 6 passages in culture.
To conduct the RSV A2 antiviral assay, NHBE cells were plated in 96-well plates at a density of 7,500 cells per well in BEGM and allowed to attach overnight at 37° C. Following attachment, 100 μL of cell culture media was removed and 3-fold serially diluted compound was added using a Hewlett-Packard D300 Digital Dispenser. The final concentration of DMSO was normalized to 0.05%. Following compound addition, the NHBE cells were infected by the addition of 100 μL of RSV A2 at a titer of 1×10^4.5 tissue culture infectious doses/mL in BEGM and then incubated at 37° C. for 4 days. The NHBE cells were then allowed to equilibrate to 25° C. and cell viability was determined by removing 100 μL of culture medium and adding 100 μL of Cell-Titer Glo viability reagent. The mixtures were incubated for 10 minutes at 25° C., and the luminescence signal was quantified on an Envision luminescence plate reader.

RSV A strain A2 = experiment: RSV HAE EC50, intracellular RSV RNA by real-time PCR; type: cell-based; details: for EC50: human respiratory syncytial virus, 72 h, RSV A2 in HAE cells, air-liquid interface, 3 days, RSV RNA
Procedure: HAE cells are cultured at the air-liquid interface and have an apical side that is exposed to the air and a basal side that is in contact with the medium. Prior to experimentation, HAE were removed from their agar-based shipping packaging and were acclimated to 37° C./5% CO2 overnight in 1 ml of HAE Assay medium (AIR-100-MM, Mattek Corp). HAE were prepared for infection by washing the apical surface twice with 400 μL of PBS (either utilizing direct pipetting methods or by running each transwell through a trough containing PBS) to remove the mucus layer. Apical chambers were drained of PBS and tapped gently onto absorbent material to remove as much PBS as possible. After washing, the cells were transferred to fresh HAE maintenance media containing 4-fold serially diluted compound, delivered to the basal side of the cell monolayer, and apically infected with 100 μL of a 1:600 dilution of RSV A strain A2 1000× stock (ABI, Columbia, MD, Cat #10-124-000) in HAE assay medium for 3 hours at 37° C. in 5% CO2. The virus inoculum was removed and the apical surface of the cells was washed 3 times with PBS using either method previously described. The cells were then cultured in the presence of compound for 3 days at 37° C. Following the incubation, total RNA was extracted from the HAE cells using a MagMAX-96 Viral RNA isolation kit (Applied Biosystems, Foster City, CA, Cat #AM1836) and intracellular RSV RNA was quantified by real-time PCR. Approximately 25 ng of purified RNA was added to a PCR reaction mixture that contained 0.9 μM RSV N Forward and RSV N Reverse primers, 0.2 μM RSV N Probe and 1× Taqman RNA-to-Ct 1-Step Kit (Applied Biosystems, Foster City, CA, Cat #4392938). RNA levels were normalized using a Taqman GAPDH control primer set (Applied Biosystems, Foster City, CA, Cat #402869). Real-Time PCR Primers and Probe Used in the RSV A2 HAE Antiviral Assay: RSV N Forward […] (SEQ ID NO: 2), RSV N Reverse […] (SEQ ID NO: 3), RSV N Probe FAM-[…]-BHQ (SEQ ID NO: 4).

in vitro = in vitro ADME; details: plasma, 37° C., up to 4 h
Procedure: For plasma stability, the compounds were incubated at 2 μM in cynomolgus monkey or human plasma for up to 4 h at 37° C. At desired time points, an aliquot from the incubation was quenched by addition of 9 volumes of 100% acetonitrile supplemented with internal standard. Following the last collection, samples were centrifuged at 3000 g for 30 min and supernatants were transferred to a new plate containing an equal volume of water for analysis by liquid chromatography coupled to triple quadrupole mass spectrometry (LC-MS/MS). Data (analyte to internal standard peak area ratio) were plotted on a semi log scale and fitted using an exponential fit. The half-life (T1/2) was determined assuming first order kinetics.

[1] = Thermodynamic solubility assay; type: physicochemical; details: thermodynamic from solid, room temperature, four days
Procedure: Excess solid compound was used to saturate aqueous samples of the compounds. The tubes were placed on an agitator set at 1000 rpm and remained under constant agitation for four days. Following agitation, it was confirmed that excess solids were present in all tubes. The tubes were centrifuged at 10,000 rpm for 5 minutes to remove excess solids and the supernatant was transferred to a new vial. Concentration analysis was determined by UPLC and quantified against internal standards.

HRV14 = HRV14 HeLa EC50; type: cell-based, human rhinovirus; details: for EC50: Human rhinovirus sp., HRV14, H1-HeLa cells, 96 h, 37° C.
Procedure: H1-HeLa cells, cultured in complete RPMI 1640 medium containing 10% heat-inactivated FBS and 1% Penicillin/Streptomycin, were seeded in 96 well plates at 5000 cells/well one day prior to compound dosing and infection. The antiviral activity of each compound was measured in triplicate. Compounds were added directly to the cell cultures in serial 3-fold dilutions using the HP300 digital dispenser (Hewlett Packard, Palo Alto, CA) immediately prior to infection. The plates were transferred to BSL-2 containment and 100 μL of 1/4000 dilution of HRV14 virus stock was added to each well containing cells and serially diluted compounds. Each plate included 6 wells of infected untreated cells and 6 wells of cells containing 5 μM Rupintrivir that served as 0% and 100% virus inhibition control, respectively. Following the infection, test plates were incubated for 96 h in a tissue culture incubator set to 37° C./5% CO2. Following incubation, the H1-HeLa cells were removed from incubation and allowed to equilibrate to 25° C. Cell viability was determined by removing 100 μL of culture medium and adding 100 μL of Cell-Titer Glo viability reagent. The mixtures were incubated on a shaker for 10 minutes at 25° C., and the luminescence signal was quantified on an Envision luminescence plate reader.

[2] = cynomolgus monkey, read-out: Cyno Plasma t1/2
[3] = human, read-out: Hum Plasma t1/2
[4] = pH 7, aqueous buffer, phosphate buffered saline solution, read-out: pH 7 Solubility
[5] = simulated gastric fluid, 10 mM hydrochloric acid (pH 2.0), read-out: pH 2 Solubility

Row | Compound | times as potent as compound 7, RSV NHBE (RSV A2; EC50 ratio vs compound 7) [times] | EC50 (RSV A2) [nM] | EC50 (RSV A strain A2) [nM] | half-life at 2 μM (in vitro; [2]) [h] | half-life at 2 μM (in vitro; [3]) [h] | solubility thermodynamic at 4 days [1, 4] [µg/mL] | solubility thermodynamic at 4 days [1, 5] [µg/mL] | EC50 (HRV14) [nM] | more potent than the compound of Formula Ib, RSV NHBE (RSV A2; EC50 ratio vs Formula Ib) | more potent relative to compound 1, RSV NHBE (RSV A2; EC50 ratio vs compound 1) | times more potent relative to compound 3, RSV NHBE (RSV A2; EC50 ratio vs compound 3) | times more potent relative to compound 4, RSV NHBE (RSV A2; EC50 ratio vs compound 4) | times more potent relative to compound 5, RSV NHBE (RSV A2; EC50 ratio vs compound 5) | times more potent relative to compound 2, RSV HAE (RSV A strain A2; EC50 ratio vs compound 2) | times more potent relative to compound 1, HRV14 HeLa (HRV14; EC50 ratio vs compound 1) [times] | times more potent compared to compound 2, HRV14 HeLa (HRV14; EC50 ratio vs compound 2) | times more potent relative to compound 3, HRV14 HeLa (HRV14; EC50 ratio vs compound 3) | times more potent relative to compound 5, HRV14 HeLa (HRV14; EC50 ratio vs compound 5)
1 | CCC(CC)COC(=O)[C@H](C)N[P@](=O)(OC[C@@]1(C#N)O[C@@H](c2ccc3c(N)ncnn23)[C@H](O)[C@@H]1O)Oc1ccccc1 [Compound 6, 2-ethylbutyl ((S)-(((2R,3S,4R,5S)-5-(4-aminopyrrolo[2,1-f][1,2,4]triazin-7-yl)-2-cyano-3,4-dihydroxytetrahydrofuran-2-yl)methoxy)(phenoxy)phosphoryl)alaninate] | 0.7 | 127 | 110 | 4.28 | 2.18 | 16 (≈ 0.0266 mM) | 3790 (≈ 6.29 mM) | – | – | – | – | – | – | – | – | – | – | –
2 | CCOC(=O)[C@H](C)NP(=O)(OC[C@@]1(C#N)O[C@@H](c2ccc3c(N)ncnn23)[C@H](O)[C@@H]1O)Oc1ccccc1 (stereo partly shown) [Compound 1, reference compound] | – | 549 | – | – | 11.1 | – | – | 1000 | – | – | – | – | – | – | – | – | – | –
3 | CCC(CC)COC(=O)[C@H](C)NP(=O)(OC[C@@]1(C#N)O[C@@H](c2ccc3c(N)ncnn23)[C@H](O)[C@@H]1O)Oc1ccccc1 (stereo partly shown) [Compound 2, reference compound] | – | 75 | 186 | 4.82 | 2.53 | 18 (≈ 0.0299 mM) | 3720 (≈ 6.17 mM) | 171 | – | – | – | – | – | – | – | – | – | –
4 | C[C@H](N[P@](=O)(OC[C@@]1(C#N)O[C@@H](c2ccc3c(N)ncnn23)[C@H](O)[C@@H]1O)Oc1ccccc1)C(=O)OC1CCCCC1 [Formula I, cyclohexyl ((S)-(((2R,3S,4R,5S)-5-(4-aminopyrrolo[2,1-f][1,2,4]triazin-7-yl)-2-cyano-3,4-dihydroxytetrahydrofuran-2-yl)methoxy)(phenoxy)phosphoryl)-L-alaninate] | – | 124 | 23 | 7.4 | 8.05 | 131 | 4120 | 78 | 5.1 | ~4.4 | about 9.3 times | about 7.1 times | about 10.0 times | about 8.1 times | ~12.8 | about 2.2 times | about 23.2 times | about 44.0 times
